The values below come from US20250325675A1, “APTAMER, CONJUGATE, COMPOSITION, METHOD FOR PREPARING SAME, AND USE THEREOF” (priority 2022, published 2025).

Series [1] has as its system SVGp12 normal astrocytes. The experiment in a line: High content imaging: entry of conjugates into SVGp12 normal astrocytes. It counts as cell-based, human. Conditions: 100 nM, 30 min 37°C. On the procedure:
(§1) In this experiment, the entry of conjugate AP1 provided by the present disclosure and comparative conjugate comparative AP10 into different cells was observed by a PerkinElmer High Content Imaging system (Operatta).
(§2) U118MG glioma cells, SVGp12 normal astrocytes, T98G human brain glioma cells, U251 human glioma cells, A549 human non-small cell lung cancer cells, MCF-7 human breast cancer cells, and 293T human kidney epithelial cells were all purchased from the Shanghai Cell Bank of Chinese Academy of Sciences. […] The supernatant was aspirated and DPBS buffer (purchased from Thermo Fisher) was added to wash the plate 2 times (100 μL each time).
(§3) Conjugate AP1 prepared above and yeast tRNA were respectively formulated into conjugate solution 2A with DMEM medium, and the conjugate solution 2A comprised yeast tRNA at a final concentration of 100 μg/mL and conjugate AP1 at a final concentration of 100 nM. […]
(§4) Normalization was performed according to the mean fluorescence intensity of control group 2Y, that is, subtracting the mean fluorescence intensity of control group 2Y from the fluorescence intensity of test group 2X before performing imaging.

Series [2] deals with A549 human non-small cell lung cancer cells. The experiment in a line: High content imaging: entry of conjugates into A549 cells. Conditions: 100 nM, 30 min 37°C. It counts as cell-based. On the procedure:
as §1, §2, §3, §4

Series [3] has as its system U118MG glioma tumor spheres. The experiment in a line: High content imaging: entry into U118MG tumor spheres. It counts as cell-based, human. Conditions: 100 nM, imaging without washing. The protocol:
In this experiment, the entry of conjugate AP1 provided by the present disclosure and comparative conjugate comparative AP10 into U118MG glioma tumor spheres and A549 human non-small cell lung cancer tumor spheres was observed by a PerkinElmer High Content Imaging system (Operatta).
80 μL fresh, sterilized and unsolidified 2% agarose was added into the culture wells of a 96-well plate. […] Half of the supernatant was aspirated every 48 h and fresh DMEM medium was added along the wall of the culture wells. After 7 days of culture, the cells were observed under the microscope to confirm that complete cell spheres were obtained, indicating successful tumor sphere cultivation.
Each culture well was added with AP1 or comparative AP10 according to the method of experimental Example 2, and imaged in a high content imaging system, with the only difference of directly performing imaging after culture without washing and performing imaging according to the measured fluorescence intensity of Cy5.

In series [4] the test system is U118-MG neuroglioma cells. The experiment in a line: CCK8 cell viability, U118-MG neuroglioma cells (Experimental Example 12). Type of series: cell-based, human. As to conditions: 72 h; AP1 50-800 nM, conjugate 19 25-800 nM; CCK8, OD450. On the procedure: U118MG neuroglioma cells were purchased from Jennio; SVGp12 human astrocytes were purchased from the Shanghai Cell Bank of Chinese Academy of Sciences; CCK8 kit was purchased from DOJINDO Laboratories.
U118MG cells and SVGp12 cells in the logarithmic growth phase were selected and seeded into a 96-well plate of a CCK8 kit at 5000 cells/well, cultured at 37° C. with 5% CO2 for 24 h. U118-MG cells and SVGp12 cells to be detected were obtained when the cell confluence was observed as 80% under microscope. […]
AP1 solution 1, AP1 solution 2, AP1 solution 3, and AP1 solution 4 were respectively added into U118-MG cells to be detected, and incubated at 37° C. for 72 h in the dark. […]
Conjugate 19 solution 1, Conjugate 19 solution 2, Conjugate 19 solution 3, Conjugate 19 solution 4, Conjugate 19 solution 5, Conjugate 19 solution 6, and Conjugate 19 solution 7 were respectively added into U118-MG cells to be detected, and incubated at 37° C. for 72 h in the dark. […]
CC8 kit was used to detect UV absorbance of test groups and control groups above at the detection wavelength of 450 nm in UV absorption spectrum according to the instructions, and the average value of the repeated experiments was taken for each group. Cell viability was calculated according to the following equation: […]

{Cy5} = cyanine 5 fluorescent dye

As for “CY5-CfUfGGAGUfUfCfAGACfGUfGUfUfGCfUfCfUfUfCfCfGAUfCfUfCf (CUGGAGUUCAGACGUGUUGCUCUUCCGAUCUC; 2'-fluoro at CU, RNA at AG, 5' {Cy5}, backbone not given here) [AP1]”, the figures for the “Cy5 fluorescence signal in cells” value in series [1] and in series [2] were “did not show any fluorescence signal” and “strong Cy5 fluorescence signal”, respectively. Also, in series [3], the “Cy5 fluorescence signal in tumor spheres” value is reported as “strong Cy5 fluorescence signal”. Further, the “cell viability of tumor cells” value in series [4] is listed as “no effect on cell viability”.
